The experiment addresses T1, Eyes absent homolog 2 [253-538] (Human, UniProt O00167).
T1 construct: 253-538
T1 sequence (O00167 whole entry): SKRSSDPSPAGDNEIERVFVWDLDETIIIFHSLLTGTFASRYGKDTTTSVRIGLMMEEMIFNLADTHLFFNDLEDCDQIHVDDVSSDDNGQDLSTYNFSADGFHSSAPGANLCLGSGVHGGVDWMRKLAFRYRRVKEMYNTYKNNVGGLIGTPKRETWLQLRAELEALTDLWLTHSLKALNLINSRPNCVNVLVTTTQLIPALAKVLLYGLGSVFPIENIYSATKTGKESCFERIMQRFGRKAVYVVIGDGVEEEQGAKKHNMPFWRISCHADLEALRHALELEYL
The experiment can be described thus: Eya Phosphatase Assay. Conditions: pH 6.5; 25 °C. As for the experimental part:
Eya activity was measured in 50-μl reactions using black, 96-well, half-volume microtiter plates (Greiner Bio-one) with the substrate OMFP (3-O-methylfluoresceinphosphate, Sigma-Aldrich), which is converted to a fluorescent product OMF upon dephosphorylation. […] Reactions were started by the addition of OMFP, preceded for 1 h at room temperature followed by terminating the reaction with the addition of 75mMEDTA.

For orientation: IC50 means the concentration needed to halve the response being measured. Read a low IC50 as greater potency in that assay. Turning to `O=C(N/N=C/c1ccc(Sc2ccccn2)s1)c1cccc(F)c1` [NCGC00249327], the half-maximal inhibitory concentration (IC50) is 2900 nM.

(Values after BindingDB's records for doi:10.1074/jbc.M114.566729 (University of Colorado School of Medicine, 2014).)
